# Data published in US20250108038A1 (priority 2023, published 2025).
# Read-outs that look alike come from different tables or passages of the source.
# Tests used:
# [1] = Stability in beagle dog plasma
# Experimental: Pooled (N≥3) male SD rat, beagle dog and mixed gender human plasma with EDTA-K2 as anticoagulant were purchased from BioIVT (NY, USA) and stored in a −70° C. freezer before use.
# Incubations were conducted in 96-well plate format. The time points defined for this study are 0, 5, 15, 30 and 60 minutes.
# For positive controls, the rat plasma was spiked with enalapril, the dog plasma spiked with bisacodyl and the human plasma was spiked with propantheline. All spiked plasma sample plates were incubated in a water bath at 37° C. with shaking.
# At end of each time point, samples were immediately quenched with three volume of cold quenching solution. All sample plates were mixed thoroughly by shaking for approximately 10 minutes and centrifuged at 3220×g for 15 minutes. Subsequently, 100 μL of supernatant was removed from each well, mixed with 100 μL water in a new 96-well plate and subjected to LC-MS/MS analysis.
# Concentrations of test article, metabolite, and control compounds in the samples were analyzed by LC-MS/MS semi-quantitatively. […] The peak area ratios of analyte/internal standard were used to semi-quantitatively determine the concentrations.
# The peak area ratios (PAR) of analyte/internal standard were used to semi-quantitatively determine the concentration of test article and control compounds, and calculate the percent remaining with the following equation:
# The elimination rate (ke) was calculated from a log linear plot of % remaining versus time. The half-life was calculated using the following equation:
# physchem = conditions: kinetic from dmso stock
# CYP2B6 [2] = molecular target: T1, CYP2B6 (Homo sapiens, UniProt P20813); experiment: biochemical
# T1 sequence (P20813 1-491): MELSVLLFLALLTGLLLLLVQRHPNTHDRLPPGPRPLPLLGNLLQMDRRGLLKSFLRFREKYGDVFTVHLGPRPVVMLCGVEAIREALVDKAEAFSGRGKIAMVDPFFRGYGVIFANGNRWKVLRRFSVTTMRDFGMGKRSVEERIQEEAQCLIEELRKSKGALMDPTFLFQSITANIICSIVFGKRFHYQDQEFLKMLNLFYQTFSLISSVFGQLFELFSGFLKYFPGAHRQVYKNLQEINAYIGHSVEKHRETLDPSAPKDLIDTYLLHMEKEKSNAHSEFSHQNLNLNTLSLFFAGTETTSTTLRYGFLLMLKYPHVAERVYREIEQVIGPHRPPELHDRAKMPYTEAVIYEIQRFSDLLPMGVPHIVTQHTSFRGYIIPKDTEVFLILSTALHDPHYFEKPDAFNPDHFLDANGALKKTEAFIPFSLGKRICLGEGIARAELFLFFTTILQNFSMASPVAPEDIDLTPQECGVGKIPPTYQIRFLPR
# CYP2C9 = CYP2C9 (Homo sapiens, UniProt P11712); experiment: in vitro; conditions: both, pH 7.4
# CYP2C19 = CYP2C19 (Homo sapiens, UniProt P33261); experiment: in vitro; conditions: both, pH 7.4
# [3] = Stability in components of human blood; format: in vitro ADME; conditions: 0.5 mM, 37° C., 0-120 min
# Experimental: FIG. 3A. […] Compound I-19 in components of human blood. Red blood cells and plasma were isolated from whole blood. […] Values represent mean+SEM of n=3 separate experiments.
# FIG. 3B. Stability of Compound I-4 in components of human blood. Red blood cells and plasma were isolated from whole blood. […] Values represent mean+SEM of n=3 separate experiments.
# Human and rat blood were centrifuged to separate out red blood cells at 1174×g for 15 min. The upper plasma level was aspirated with a micropipette and placed in a bleach solution for disposal. The RBC pellet was resuspended in sterile isotonic saline. The pellet was gently resuspended by rocking the tube. The sample was then centrifuged again to collect the RBC pellet and then resuspended and washed one more time following the same procedure. A total of three was done. Following the last wash and centrifugation, the RBCs were resuspended with PBS; and mixed by inversion. Aliquots of the resuspended and washed RBCs were then placed into 4 reaction tubes. These tubes were centrifuged to collect the RBCs. The fluid level was marked on each tube, then the supernatant was aspirated off and the cells resuspended with room temperature PBS pH 7.4 to the original mark. An aliquot of the RBC suspension was added to four sterile tubes containing PBS pH 7.4 at room temperature. […]
# CYP2B6 [4] = molecular target: T1, CYP2B6
# Sequence of CYP2C9 (P11712 whole entry): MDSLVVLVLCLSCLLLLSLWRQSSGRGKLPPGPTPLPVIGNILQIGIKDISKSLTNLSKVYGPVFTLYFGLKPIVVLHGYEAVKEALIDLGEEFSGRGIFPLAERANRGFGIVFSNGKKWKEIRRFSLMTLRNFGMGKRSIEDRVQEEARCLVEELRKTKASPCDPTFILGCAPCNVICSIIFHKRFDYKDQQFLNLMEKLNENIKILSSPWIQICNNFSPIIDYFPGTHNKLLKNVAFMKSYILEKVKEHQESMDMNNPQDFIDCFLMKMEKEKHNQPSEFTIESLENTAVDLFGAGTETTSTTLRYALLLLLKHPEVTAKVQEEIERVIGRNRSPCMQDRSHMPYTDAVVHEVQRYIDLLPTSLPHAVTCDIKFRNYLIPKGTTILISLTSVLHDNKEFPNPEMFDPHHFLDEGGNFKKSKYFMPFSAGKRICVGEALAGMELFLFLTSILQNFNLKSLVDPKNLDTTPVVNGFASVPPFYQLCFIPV
# Sequence of CYP2C19 (P33261 whole entry): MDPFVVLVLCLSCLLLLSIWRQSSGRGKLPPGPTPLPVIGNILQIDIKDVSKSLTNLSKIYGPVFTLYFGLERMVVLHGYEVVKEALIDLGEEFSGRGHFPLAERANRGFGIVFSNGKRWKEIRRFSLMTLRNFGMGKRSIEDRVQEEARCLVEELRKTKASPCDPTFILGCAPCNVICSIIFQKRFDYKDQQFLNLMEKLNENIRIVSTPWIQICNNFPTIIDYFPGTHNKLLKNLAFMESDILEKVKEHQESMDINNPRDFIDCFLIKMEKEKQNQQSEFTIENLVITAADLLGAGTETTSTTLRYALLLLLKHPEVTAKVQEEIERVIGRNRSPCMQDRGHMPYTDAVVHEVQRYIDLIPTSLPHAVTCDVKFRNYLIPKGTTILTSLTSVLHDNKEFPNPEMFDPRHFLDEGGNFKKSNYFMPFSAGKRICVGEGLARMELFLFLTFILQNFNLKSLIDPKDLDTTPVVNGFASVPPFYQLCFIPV
structure (smiles),measurement,setting,value
COCCOC1(c2ccc(Cl)cc2)c2ccccc2C2=NCCN21 (stereo not drawn) [Compound I-4],Compound A formed (Aa/Ai),[1]; 0 min,0.48
same,% Remaining,"[1]; 2.0 μM, 0 min",100%
same,Aa/Ai Mean (N = 2),"[1]; 2.0 μM, 0 min",2.24
same,% Remaining,"[1]; 2.0 μM, 5 min",93.5%
same,Aa/Ai Mean (N = 2),"[1]; 2.0 μM, 5 min",2.10
same,% Remaining,"[1]; 2.0 μM, 15 min",92.0%
same,Aa/Ai Mean (N = 2),"[1]; 2.0 μM, 15 min",2.07
same,% Remaining,"[1]; 2.0 μM, 30 min",89.2%
same,Aa/Ai Mean (N = 2),"[1]; 2.0 μM, 30 min",2.00
same,% Remaining,"[1]; 2.0 μM, 60 min",83.7%
same,Aa/Ai Mean (N = 2),"[1]; 2.0 μM, 60 min",1.88
same,T1/2,"[1]; 2.0 μM, 60 min incubation",>3.12 h
same,Compound A formed (Aa/Ai),[1]; 5 min,0.46
same,Compound A formed (Aa/Ai),[1]; 15 min,0.46
same,Compound A formed (Aa/Ai),[1]; 30 min,0.42
same,Compound A formed (Aa/Ai),[1]; 60 min,0.39
"OC1(c2ccc(Cl)cc2)c2ccccc2C2=NCCN21 (stereo not drawn) [Compound A, 5-(4-chlorophenyl)-2,3-dihydroimidazo[1,2-b]isoindol-5-ol, reference compound]",solubility kinetic,"physchem; 32 °C, pH 7.4, aqueous buffer, transport buffer with sucrose for BCRP and MDR1 (pH 7.4, 32° C.)",≥ 50 µM
same,solubility kinetic,"physchem; 37 °C, pH 7.4, aqueous buffer, HBSS (pH 7.4) uptake assay buffer",≥ 30 µM
same,solubility kinetic,"physchem; 37 °C, pH 7.4, aqueous buffer, transport buffer for BSEP (pH 7.4)",≥ 35 µM
same,solubility kinetic,"physchem; 37 °C, pH 8, aqueous buffer, KH (pH 8.0) uptake assay buffer",≥ 30 µM
same,IC50,CYP2B6 [2],0.092 µM
same,inhibition at 10 µM,CYP2C9,10.2%
same,inhibition at 10 µM,CYP2C19,16.5%
Clc1ccc(C2(OCC3OCCO3)c3ccccc3C3=NCCN32)cc1 (stereo not drawn) [Compound I-19],% parent compound remaining,[3]; human red blood cells,time-dependent decrease in the amount of parent compound present
same,% parent compound remaining,[3]; human whole blood,time-dependent decrease in the amount of parent compound present
same,Inhibition at Highest Test Article Concentration,"CYP2B6 [4]; 2B6, Bupropion, at 50 μM",77.2 at 50 μM %
same,IC50,CYP2B6 [4]; microsomes,7.44 µM
